# Assays:
# Assay type in all cases: in vivo
# [1] = tested on: ivy-leaved morning glory (Ipomoea hederacea); experiment: Test G Pre-Emergence Protocol; details: Ipomoea, pre-emergence, 312 h, evaluated after 13 days; for pest or weed control at 15.625 g/ha: 15.625 g ai/ha; for pest or weed control at 15.625 g/ha / pest or weed control at 250 g/ha: read-out: Morningglory, Ivy-leaved damage rating (100=total damage to plant; 0=no damage to plant); for pest or weed control at 62.5 g/ha: 62.5 g ai/ha, 100=total damage to plant, 0=no damage to plant, read-out: Morningglory, Ivy-leaved damage rating; for pest or weed control at 250 g/ha: 250 g ai/ha
# Outline: (§1)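 Spraying took place one day after sowing, at 15.625, 62.5 or 250 g/ha, using an acetone/water (50:50) spray solution containing 0.5% Tween 20. Plants were kept under glasshouse conditions (24/16 °C, 14 h light, 65% humidity, watered twice daily), and injury was rated 0–100 at day 13.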
# [2] = tested on: barnyardgrass (Echinochloa crus-galli); experiment: Test G Pre-Emergence Protocol; details: Echinochloa crus-galli, pre-emergence, 312 h, evaluated after 13 days; for pest or weed control at 15.625 g/ha: 15.625 g ai/ha; for pest or weed control at 15.625 g/ha / pest or weed control at 250 g/ha: read-out: Barnyardgrass damage rating (100=total damage to plant; 0=no damage to plant); for pest or weed control at 62.5 g/ha: 62.5 g ai/ha, 100=total damage to plant, 0=no damage to plant, read-out: Barnyardgrass damage rating; for pest or weed control at 250 g/ha: 250 g ai/ha
# Outline: as §1
# [3] = tested on: giant foxtail (Setaria faberi); experiment: Test G Pre-Emergence Protocol; details: Setaria faberi, pre-emergence, 312 h, evaluated after 13 days; for pest or weed control at 15.625 g/ha: 15.625 g ai/ha; for pest or weed control at 15.625 g/ha / pest or weed control at 250 g/ha: read-out: Foxtail, Giant damage rating (100=total damage to plant; 0=no damage to plant); for pest or weed control at 62.5 g/ha: 62.5 g ai/ha, 100=total damage to plant, 0=no damage to plant, read-out: Foxtail, Giant damage rating; for pest or weed control at 250 g/ha: 250 g ai/ha
# Outline: as §1
# corn (Zea mays) [4] = experiment: Test G Pre-Emergence Protocol; details: Zea mays, pre-emergence, 312 h, evaluated after 13 days; for plant injury at 15.625 g/ha: 15.625 g ai/ha; for plant injury at 15.625 g/ha / plant injury at 250 g/ha: read-out: Corn damage rating (100=total damage to plant; 0=no damage to plant); for plant injury at 62.5 g/ha: 62.5 g ai/ha, 100=total damage to plant, 0=no damage to plant, read-out: Corn damage rating; for plant injury at 250 g/ha: 250 g ai/ha
# Outline: as §1
# [5] = tested on: redroot pigweed (Amaranthus retroflexus); experiment: Test G Pre-Emergence Protocol; details: Amaranthus retroflexus, pre-emergence, 312 h, evaluated after 13 days; for pest or weed control at 15.625 g/ha: 15.625 g ai/ha; for pest or weed control at 15.625 g/ha / pest or weed control at 250 g/ha: read-out: Pigweed, Redroot damage rating (100=total damage to plant; 0=no damage to plant); for pest or weed control at 62.5 g/ha: 62.5 g ai/ha, 100=total damage to plant, 0=no damage to plant, read-out: Pigweed, Redroot damage rating; for pest or weed control at 250 g/ha: 250 g ai/ha
# Outline: as §1
# [6] = tested on: velvetleaf (Abutilon theophrasti); experiment: Test G Pre-Emergence Protocol; details: Abutilon theophrasti, pre-emergence, 312 h, evaluated after 13 days; for pest or weed control at 15.625 g/ha: 15.625 g ai/ha; for pest or weed control at 15.625 g/ha / pest or weed control at 250 g/ha: read-out: Velvetleaf damage rating (100=total damage to plant; 0=no damage to plant); for pest or weed control at 62.5 g/ha: 62.5 g ai/ha, 100=total damage to plant, 0=no damage to plant, read-out: Velvetleaf damage rating; for pest or weed control at 250 g/ha: 250 g ai/ha
# Outline: as §1
# [7] = tested on: ivy-leaved morning glory (Ipomoea hederacea); experiment: Test G Post-Emergence Protocol; details: Ipomoea, post-emergence, 312 h, read-out: Morningglory, Ivy-leaved damage rating; for pest or weed control at 15.625 g/ha: 15.625 g ai/ha, evaluated after 13 days (100=total damage to plant; 0=no damage to plant); for pest or weed control at 62.5 g/ha: 62.5 g ai/ha; for pest or weed control at 62.5 g/ha / pest or weed control at 250 g/ha: evaluated after 13 days, 100=total damage to plant, 0=no damage to plant; for pest or weed control at 250 g/ha: 250 g ai/ha
# Outline: (§2)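 Post-emergence herbicidal damage, scored visually 0–100 at 13 days. Application at 15.625, 62.5 or 250 g/ha onto 8-day-old plants grown under glasshouse control.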
# [8] = tested on: barnyardgrass (Echinochloa crus-galli); experiment: Test G Post-Emergence Protocol; details: Echinochloa crus-galli, post-emergence, 312 h, read-out: Barnyardgrass damage rating; for pest or weed control at 15.625 g/ha: 15.625 g ai/ha, evaluated after 13 days (100=total damage to plant; 0=no damage to plant); for pest or weed control at 62.5 g/ha: 62.5 g ai/ha; for pest or weed control at 62.5 g/ha / pest or weed control at 250 g/ha: evaluated after 13 days, 100=total damage to plant, 0=no damage to plant; for pest or weed control at 250 g/ha: 250 g ai/ha
# Outline: as §2
# [9] = tested on: giant foxtail (Setaria faberi); experiment: Test G Post-Emergence Protocol; details: Setaria faberi, post-emergence, 312 h, read-out: Foxtail, Giant damage rating; for pest or weed control at 15.625 g/ha: 15.625 g ai/ha, evaluated after 13 days (100=total damage to plant; 0=no damage to plant); for pest or weed control at 62.5 g/ha: 62.5 g ai/ha
# Outline: as §2
# corn (Zea mays) [10] = experiment: Test G Post-Emergence Protocol; details: Zea mays, post-emergence, 312 h, read-out: Corn damage rating; for plant injury at 15.625 g/ha: 15.625 g ai/ha, evaluated after 13 days (100=total damage to plant; 0=no damage to plant); for plant injury at 62.5 g/ha: 62.5 g ai/ha; for plant injury at 62.5 g/ha / plant injury at 250 g/ha: evaluated after 13 days, 100=total damage to plant, 0=no damage to plant; for plant injury at 250 g/ha: 250 g ai/ha
# Outline: as §2
# [11] = tested on: redroot pigweed (Amaranthus retroflexus); experiment: Test G Post-Emergence Protocol; details: Amaranthus retroflexus, post-emergence, 312 h, read-out: Pigweed, Redroot damage rating; for pest or weed control at 15.625 g/ha: 15.625 g ai/ha, evaluated after 13 days (100=total damage to plant; 0=no damage to plant); for pest or weed control at 62.5 g/ha: 62.5 g ai/ha; for pest or weed control at 62.5 g/ha / pest or weed control at 250 g/ha: evaluated after 13 days, 100=total damage to plant, 0=no damage to plant; for pest or weed control at 250 g/ha: 250 g ai/ha
# Outline: as §2
# [12] = tested on: velvetleaf (Abutilon theophrasti); experiment: Test G Post-Emergence Protocol; details: Abutilon theophrasti, post-emergence, 312 h, read-out: Velvetleaf damage rating; for pest or weed control at 15.625 g/ha: 15.625 g ai/ha, evaluated after 13 days (100=total damage to plant; 0=no damage to plant); for pest or weed control at 62.5 g/ha: 62.5 g ai/ha; for pest or weed control at 62.5 g/ha / pest or weed control at 250 g/ha: evaluated after 13 days, 100=total damage to plant, 0=no damage to plant; for pest or weed control at 250 g/ha: 250 g ai/ha
# Outline: as §2
# [13] = evaluated after 13 days, 100=total damage to plant, 0=no damage to plant
structure (smiles),measurement,setting,value
Cc1cc([C@H]2CN(C)C(=O)[C@@H]2C(=O)Nc2ccccc2S(C)(=O)=O)cc(C(F)(F)F)c1 (racemic) [Compound 1795],pest or weed control at 15.625 g/ha,[1],0%
same,pest or weed control at 62.5 g/ha,[1],10%
same,pest or weed control at 250 g/ha,[1],60%
same,pest or weed control at 15.625 g/ha,[2],30%
same,pest or weed control at 62.5 g/ha,[2],70%
same,pest or weed control at 250 g/ha,[2],80%
same,pest or weed control at 15.625 g/ha,[3],60%
same,pest or weed control at 62.5 g/ha,[3],80%
same,pest or weed control at 250 g/ha,[3],90%
same,plant injury at 15.625 g/ha,corn (Zea mays) [4],0%
same,plant injury at 62.5 g/ha,corn (Zea mays) [4],40%
same,plant injury at 250 g/ha,corn (Zea mays) [4],80%
same,pest or weed control at 15.625 g/ha,[5],0%
same,pest or weed control at 62.5 g/ha,[5],20%
same,pest or weed control at 250 g/ha,[5],30%
same,pest or weed control at 15.625 g/ha,[6],0%
same,pest or weed control at 62.5 g/ha,[6],0%
same,pest or weed control at 250 g/ha,[6],10%
same,pest or weed control at 15.625 g/ha,[7],10%
same,pest or weed control at 62.5 g/ha,[7],20%
same,pest or weed control at 250 g/ha,[7],70%
same,pest or weed control at 15.625 g/ha,[8],20%
same,pest or weed control at 62.5 g/ha,[8],70%
same,pest or weed control at 250 g/ha,[8],70%
same,pest or weed control at 15.625 g/ha,[9],60%
same,pest or weed control at 62.5 g/ha,[9]; [13],80%
same,pest or weed control at 250 g/ha,"[9]; 250 g ai/ha, evaluated after 13 days, 100=total damage to plant, 0=no damage to plant",80%
same,plant injury at 15.625 g/ha,corn (Zea mays) [10],0%
same,plant injury at 62.5 g/ha,corn (Zea mays) [10],40%
same,plant injury at 250 g/ha,corn (Zea mays) [10],70%
same,pest or weed control at 15.625 g/ha,[11],0%
same,pest or weed control at 62.5 g/ha,[11],20%
same,pest or weed control at 250 g/ha,[11],30%
same,pest or weed control at 15.625 g/ha,[12],0%
same,pest or weed control at 62.5 g/ha,[12],0%
same,pest or weed control at 250 g/ha,[12],20%
CSc1ncccc1NC(=O)[C@H]1C(=O)N(C)C[C@@H]1c1ccc(C(F)(F)F)cc1 (racemic) [Compound 1786],pest or weed control at 15.625 g/ha,[1],0%
same,pest or weed control at 62.5 g/ha,[1],0%
same,pest or weed control at 250 g/ha,[1],0%
same,pest or weed control at 15.625 g/ha,[2],0%
same,pest or weed control at 62.5 g/ha,[2],0%
same,pest or weed control at 250 g/ha,[2],20%
same,pest or weed control at 15.625 g/ha,[3],0%
same,pest or weed control at 62.5 g/ha,[3],0%
same,pest or weed control at 250 g/ha,[3],80%
same,plant injury at 15.625 g/ha,corn (Zea mays) [4],0%
same,plant injury at 62.5 g/ha,corn (Zea mays) [4],0%
same,plant injury at 250 g/ha,corn (Zea mays) [4],0%
same,pest or weed control at 15.625 g/ha,[5],0%
same,pest or weed control at 62.5 g/ha,[5],0%
same,pest or weed control at 250 g/ha,[5],40%
same,pest or weed control at 15.625 g/ha,[6],0%
same,pest or weed control at 62.5 g/ha,[6],0%
same,pest or weed control at 250 g/ha,[6],30%
same,pest or weed control at 15.625 g/ha,[7],0%
same,pest or weed control at 62.5 g/ha,[7],0%
same,pest or weed control at 250 g/ha,[7],0%
same,pest or weed control at 15.625 g/ha,[8],0%
same,pest or weed control at 62.5 g/ha,[8],0%
same,pest or weed control at 250 g/ha,[8],0%
same,pest or weed control at 15.625 g/ha,[9],0%
same,pest or weed control at 62.5 g/ha,[9]; [13],10%
same,plant injury at 15.625 g/ha,corn (Zea mays) [10],0%
same,plant injury at 62.5 g/ha,corn (Zea mays) [10],0%
same,plant injury at 250 g/ha,corn (Zea mays) [10],0%
same,pest or weed control at 15.625 g/ha,[11],0%
same,pest or weed control at 62.5 g/ha,[11],0%
same,pest or weed control at 250 g/ha,[11],20%
same,pest or weed control at 15.625 g/ha,[12],0%
same,pest or weed control at 62.5 g/ha,[12],0%
same,pest or weed control at 250 g/ha,[12],30%
